The assay relates to human sst2 receptor. As to the kind of experiment: Immunofluorescence microscopy based sst2 internalization assay. The assay is classed as cell-based. Particulars: HEK-sst2 cells, 30 min at 37°C, 10 nM.

With Tyr^3-octreotide [TOC], the “sst2 internalization by positive control” value is on record as “sub-maximal internalization effect”.
